Data: the supplement of paper PMC8024199
± gives the standard deviation of the averaged measurements.

How the values were obtained:
Assay in all cases: drug sensitivity score (DSS) (DSS score); higher = more sensitive (stronger growth inhibition); extreme values may be limits of the assay
[1] = system: Ba/F3 P210-BCR-ABL1 RUNX1-/- (mouse)
Outline: (§1)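 Mouse Ba/F3 cells carrying P210-BCR-ABL1, CRISPR/Cas9-edited at runx1 exon 4 or edited-control clones, were screened against a 528-compound library on pre-printed 384-well plates. Each compound ran at five concentrations spanning a 10,000-fold range, with 10,000 cells per well in RPMI with 10% FBS for 72 h at 37 °C and 5% CO2. CellTiter-Glo luminescence was scaled between vehicle and positive-control wells. A drug sensitivity score summarised each dose-response, averaged over two replicates.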

[2] = system: Ba/F3 P210-BCR-ABL1 RUNX1wt/wt control (mouse)
Outline: as §1

[3] = system: Ba/F3 P210-BCR-ABL1 RUNX1-/mut (mouse)
Outline: as §1

| Structure (SMILES) | drug sensitivity score [1] | drug sensitivity score [2] | drug sensitivity score [3] |
| --- | --- | --- | --- |
| CN(C)Cc1ccc(S(=O)(=O)n2ccc(/C=C/C(=O)NO)c2)cc1 [Resminostat] | 15.8 ± 0.78 | 13.1 ± 0.57 | 15.2 ± 0.92 |
| Nc1cc(COc2c(Cl)cc(C[C@H](N)C(=O)O)cc2Cl)c2oc(-c3ccccc3)nc2c1 [JPH203] | 0 | 0 | 0 |
| C[C@@H](Oc1ccc2[nH]nc(/C=C/c3cnn(CCO)c3)c2c1)c1c(Cl)cncc1Cl | 14.5 ± 3.5 | 6.65 ± 0.21 | 8.95 ± 1.5 |
| O=C(NCc1ccncc1)C12CC3CC(C1)CC(c1ccc(Cl)cc1)(C3)C2 | 4.7 ± 0.57 | 2.8 ± 0.85 | 3.3 ± 1.8 |
| Nc1ccn([C@@H]2O[C@H](CO)[C@@H](O)[C@@H]2O)c(=O)n1 [Cytarabine] | 12.25 ± 0.071 | 6.25 ± 0.071 | 8.25 ± 4 |
| O=C(Nc1cc(Cl)cc2c1[nH]c1cnccc12)c1cccnc1 [PS-1145] | 0.4 ± 0.57 | 0 | 0.7 ± 0.99 |
| CCN1CCN(Cc2ccc(Nc3ncc(F)c(-c4cc(F)c5nc(C)n(C(C)C)c5c4)n3)nc2)CC1 [Abemaciclib] | 10.2 ± 4.7 | 3.05 ± 0.071 | 8.3 ± 6.1 |
| CCOc1cc2ncc(C#N)c(Nc3ccc(OCc4ccccn4)c(Cl)c3)c2cc1NC(=O)/C=C/CN(C)C [Neratinib] | 2.35 ± 1.5 | 0 | 1.5 ± 2.1 |
| CC[C@H](C)C(=O)O[C@H]1C[C@@H](C)C=C2C=C[C@H](C)[C@H](CC[C@@H]3C[C@@H](O)CC(=O)O3)[C@H]21 [Lovastatin] | 0 | 0 | 0 |
| CC[C@H](NC(=O)[C@H](C)NC)C(=O)N1C[C@@H](O)C[C@H]1Cc1c(-c2[nH]c3cc(F)ccc3c2C[C@@H]2C[C@H](O)CN2C(=O)[C@H](CC)NC(=O)[C@H](C)NC)[nH]c2cc(F)ccc12 [Birinapant] | 14 ± 5.5 | 6.15 ± 0.071 | 4.15 ± 5.2 |
| CO[C@H]1C(=O)[C@]2(C)[C@@H](OC)C[C@H]3OC[C@@]3(OC(C)=O)[C@H]2[C@H](OC(=O)c2ccccc2)[C@]2(O)C[C@H](OC(=O)[C@H](O)[C@@H](NC(=O)OC(C)(C)C)c3ccccc3)C(C)=C1C2(C)C [Cabazitaxel] | 35.9 ± 1.4 | 13.55 ± 0.071 | 26.2 ± 3.5 |
| CC1(COc2ccc3c(c2)ncn3-c2ccc3cccc(N4CCC(N)CC4)c3n2)COC1 [Crenolanib] | 12.8 ± 0.49 | 6.25 ± 0.49 | 10.9 ± 1.5 |
| CCCCCCCCCCCCCCCCOP(=O)([O-])OCC[N+](C)(C)C [Miltefosine] | 7.05 ± 0.21 | 2 ± 1.4 | 5.5 ± 1.3 |
| CON(C)C(=O)N1N=C(c2cc(F)ccc2F)S[C@@]1(CCCN)c1ccccc1 [Filanesib] | 19.6 ± 2.2 | 7.85 ± 0.35 | 14.95 ± 0.071 |
| Cc1cc(C)c(CNC(=O)c2cc(-c3ccc(CN4CCOCC4)cc3)cc3c2cnn3C2CCCC2)c(=O)[nH]1 [EPZ-5687] | 0.5 ± 0.71 | 0 | 0.9 ± 1.3 |
| N#CC(c1ccnc(OCc2ccc(CN3CCOCC3)cc2)n1)c1nc2ccccc2s1 (stereo not drawn) [Bentamapimod] | 2.55 ± 1.6 | 4.25 ± 0.49 | 0.75 ± 1.1 |
| CN1CCN(C(=O)c2ccc3cc(CCNc4ncnc5ccc(C#N)cc45)ccc3c2)CC1 [Senexin B] | 0.8 | 0.15 ± 0.21 | 1.1 ± 1.6 |
| O=C(Nc1cnn2ccc(N3CCC[C@@H]3c3cc(F)ccc3F)nc12)N1CC[C@H](O)C1 [Larotrectinib] | 0 | 0.7 ± 0.71 | 0.05 ± 0.071 |
| COc1cc2nccc(Oc3ccc(NC(=O)C4(C(=O)Nc5ccc(F)cc5)CC4)cc3)c2cc1OC [Cabozantinib] | 4.8 ± 0.85 | 0 | 1.8 ± 1.6 |
| O=C(Nc1cc(Oc2cc(F)c(NC(=O)C3(C(=O)Nc4ccc(F)cc4)CC3)cc2F)ccn1)C1CC1 [Altiratinib] | 10.8 | 5.45 ± 0.21 | 6.8 ± 0.85 |
| Cc1cc(Nc2ncc(Cl)c(Nc3ccccc3S(=O)(=O)C(C)C)n2)c(OC(C)C)cc1C1CCNCC1 [Ceritinib] | 0.8 ± 1.1 | 1.35 ± 0.78 | 0.75 ± 1.1 |
| CC#CC(=O)N1CCC[C@H]1c1nc(-c2ccc(C(=O)Nc3ccccn3)cc2)c2c(N)nccn12 [Acalabrutinib] | 0 | 0 | 0.05 ± 0.071 |
| CC(O)(CS(=O)(=O)c1ccc(F)cc1)C(=O)Nc1ccc(C#N)c(C(F)(F)F)c1 (stereo not drawn) [Bicalutamide] | 0.25 ± 0.35 | 0 | 1.15 ± 1.6 |

| Structure (SMILES) | drug sensitivity score [1] | drug sensitivity score [2] | drug sensitivity score [3] |
| --- | --- | --- | --- |
| Cc1cccc(-c2[nH]c(CNc3ccccc3F)nc2-c2ccc3ncnn3c2)n1 [TEW-7197] | 2.35 ± 3.3 | 0 | 0 |
| CNc1nc(-c2ccc3c(N)n[nH]c3c2)cc(N2C[C@@H](C(=O)NC3CCCCC3)CC[C@H]2C)n1 | 7.15 ± 0.35 | 0 | 4 ± 2.3 |
| Cn1c(Nc2ccc(C(F)(F)F)cc2)nc2cc(Oc3ccnc(-c4ncc(C(F)(F)F)[nH]4)c3)ccc21 [NVP-RAF265] | 2.5 ± 1.8 | 0 | 0 |
| COc1cccc2c1C(=O)c1c(O)c3c(c(O)c1C2=O)C[C@@](O)(C(=O)CO)C[C@@H]3O[C@H]1C[C@H](N)[C@@H](O)[C@H](C)O1 [Epirubicin] | 24.9 ± 0.35 | 13.1 ± 0.21 | 18.6 ± 3.5 |
| CC(C)[C@H](C(=O)Nc1ccc(C(=O)NO)cc1)c1ccccc1 [AR-42] | 20.3 ± 0.85 | 16.5 ± 0.14 | 17.9 ± 1.1 |
| COc1cc2ncnc(Nc3ccc(F)c(Cl)c3)c2cc1NC(=O)/C=C/CN1CCCCC1 [Dacomitinib] | 1.05 ± 1.5 | 0.25 ± 0.35 | 1.8 ± 2.3 |
| COc1c(OCCCN2CCOCC2)ccc2c1N=C(NC(=O)c1cnc(N)nc1)N1CCN=C21 [Copanlisib] | 8.65 ± 1.5 | 1.4 ± 0.99 | 6.1 ± 3.4 |
| COC(=O)c1ccc2c(c1)NC(=O)/C2=C(\Nc1ccc(N(C)C(=O)CN2CCN(C)CC2)cc1)c1ccccc1 [Nintedanib] | 17.4 | 5.4 ± 0.14 | 8.15 ± 4.6 |
| CC(C)C[C@@H](C(=O)N[C@H](C(=O)OC1CCCC1)c1ccccc1)[C@H](O)C(=O)NO [Tosedostat] | 11.4 ± 1.7 | 1.85 ± 0.49 | 11.3 ± 4.3 |
| N[C@@H]1CCCN(c2c(/C=C3\SC(=O)NC3=O)cccc2-c2ccccc2)C1 [AZD1208] | 11.8 ± 0.35 | 2.4 ± 0.42 | 7.05 ± 2.5 |
| N.N.[Cl][Pt][Cl] [Cisplatin] | 6.3 ± 1.4 | 5.5 ± 0.14 | 7 ± 1.6 |
| CC[C@@H]1[C@H](F)C(=O)N[C@@H]1COc1nccc2cc(C(N)=O)c(OC)cc12 | 1.3 ± 0.42 | 0.25 ± 0.35 | 0.9 ± 1.3 |
| CCN(CC)Cc1ccc2cc(COC(=O)Nc3ccc(C(=O)NO)cc3)ccc2c1 [Givinostat] | 13.4 ± 0.28 | 7.9 ± 0.99 | 12.7 ± 0.57 |
| COc1cccc2c1C(=O)c1c(O)c3c(c(O)c1C2=O)C[C@@](O)(/C(CO)=N/NC(=O)CCCCCN1C(=O)C=CC1=O)C[C@@H]3O[C@H]1C[C@H](N)[C@H](O)[C@H](C)O1 [Aldoxorubicin] | 20.3 ± 0.71 | 11.2 ± 0.35 | 18.1 ± 0.35 |
| CO[C@H]1CC[C@H](N2C(=O)CNc3ncc(-c4ccc(C(C)(C)O)nc4)nc32)CC1 [CC-223] | 7.25 ± 0.64 | 2.45 ± 0.071 | 6.65 ± 2.2 |
| CC(C)Nc1cc(-c2c[nH]c(C(=O)N[C@H](CO)c3cccc(Cl)c3)c2)c(Cl)cn1 [Ulixertinib] | 7.25 ± 0.071 | 2.45 ± 1.6 | 5.6 ± 0.42 |
| Cn1ncc(Cl)c1-c1cc(C(=O)N[C@H](CN)Cc2ccc(F)c(F)c2)oc1Cl [Uprosertib] | 0.4 ± 0.57 | 0 | 0 |
| Cn1cc(C[C@@H](N)C(=O)O)c2ccccc21 [1-methyl-D-tryptophan] | 0 | 0 | 0 |
| CC(C)Oc1ccc(-c2nn([C@@H](C)c3oc4ccc(F)cc4c(=O)c3-c3cccc(F)c3)c3ncnc(N)c23)cc1F [TGR-1202] | 3.4 ± 0.99 | 0 | 1.2 ± 1.4 |
| O=c1ncn2nc(Sc3ccc(F)cc3F)ccc2c1-c1c(Cl)cccc1Cl [Neflamapimod] | 1.9 ± 0.71 | 0 | 0.85 ± 1.2 |
| CC[C@H](C)C(=O)O[C@H]1C[C@H](O)C=C2C=C[C@H](C)[C@H](CC[C@@H](O)C[C@@H](O)CC(=O)O)[C@H]21 [Pravastatin] | 0.1 ± 0.14 | 0.1 ± 0.14 | 0 |
| Nc1cccc2c1C(=O)N(C1CCC(=O)NC1=O)C2=O (stereo not drawn) [Pomalidomide] | 0 | 0 | 0 |
| NS(=O)(=O)NCCNc1nonc1/C(=N/O)Nc1ccc(F)c(Br)c1 [Epacadostat] | 1.05 ± 1.2 | 0 | 0.7 ± 0.99 |
